Results from ChEMBL document CHEMBL1156337, “Synthesis and evaluation of novel benzothiazole derivatives based on the bithiophene structure as potential radiotracers for beta-amyloid plaques in Alzheimer's disease” (Bioorg Med Chem, 2010).
pKi: −log10 of the molar value. Active and inactive are the calls of the source. No cut-off for these calls is given here.

Columns and labels:
[1] = Displacement of [125I]TZDM from amyloid beta (1 to 40) aggregates after 2 hrs
[2] = Binding affinity to amyloid beta aggregates
Mus musculus = species: Mus musculus; test: Binding affinity to beta amyloid plaques in brain sections of TgC57 transgenic mouse transfected with APP and PS1 double mutant after 10 mins using thioflavin-S stain; format: tissue-based
[3] = Displacement of [125I]TZDM from amyloid beta (1 to 42) aggregates after 2 hrs

Structure (SMILES) | pKi [1] | pKi [2] | Activity (Mus musculus) | pKi [3]
CNc1ccc(-c2nc3ccc(O)cc3s2)cc1 [PITTSBURGH COMPOUND B UNLABELLED] | 9.11 | – | – | –
N#CC(C#N)=Cc1ccc(-c2ccc(-c3ccc(O)cc3)s2)s1 | – | 8.00 | – | –
COc1ccc2nc(-c3ccc(-c4ccc(Br)s4)s3)sc2c1 | 8.89 | – | Active | 9.68
Brc1ccc2nc(-c3ccc(-c4cccs4)s3)sc2c1 | 9.24 | – | Active | 9.22
c1csc(-c2ccc(-c3nc4ccccc4s3)s2)c1 | 8.40 | – | Active | 8.33
COc1ccc2nc(-c3ccc(-c4cccs4)s3)sc2c1 | 9.22 | – | Active | 8.68
